This is an account of results in patent US8952163B2, “Substituted hydroxamic acids and uses thereof” (Millennium Pharmaceuticals, Inc., priority 2010, dated 2015).

This assay concerns the target T1, purified human HDAC6 (Homo sapiens, UniProt Q9UBN7).
T1 construct: purchased BPS Bioscience 5006
T1 sequence (Q9UBN7 1-1215): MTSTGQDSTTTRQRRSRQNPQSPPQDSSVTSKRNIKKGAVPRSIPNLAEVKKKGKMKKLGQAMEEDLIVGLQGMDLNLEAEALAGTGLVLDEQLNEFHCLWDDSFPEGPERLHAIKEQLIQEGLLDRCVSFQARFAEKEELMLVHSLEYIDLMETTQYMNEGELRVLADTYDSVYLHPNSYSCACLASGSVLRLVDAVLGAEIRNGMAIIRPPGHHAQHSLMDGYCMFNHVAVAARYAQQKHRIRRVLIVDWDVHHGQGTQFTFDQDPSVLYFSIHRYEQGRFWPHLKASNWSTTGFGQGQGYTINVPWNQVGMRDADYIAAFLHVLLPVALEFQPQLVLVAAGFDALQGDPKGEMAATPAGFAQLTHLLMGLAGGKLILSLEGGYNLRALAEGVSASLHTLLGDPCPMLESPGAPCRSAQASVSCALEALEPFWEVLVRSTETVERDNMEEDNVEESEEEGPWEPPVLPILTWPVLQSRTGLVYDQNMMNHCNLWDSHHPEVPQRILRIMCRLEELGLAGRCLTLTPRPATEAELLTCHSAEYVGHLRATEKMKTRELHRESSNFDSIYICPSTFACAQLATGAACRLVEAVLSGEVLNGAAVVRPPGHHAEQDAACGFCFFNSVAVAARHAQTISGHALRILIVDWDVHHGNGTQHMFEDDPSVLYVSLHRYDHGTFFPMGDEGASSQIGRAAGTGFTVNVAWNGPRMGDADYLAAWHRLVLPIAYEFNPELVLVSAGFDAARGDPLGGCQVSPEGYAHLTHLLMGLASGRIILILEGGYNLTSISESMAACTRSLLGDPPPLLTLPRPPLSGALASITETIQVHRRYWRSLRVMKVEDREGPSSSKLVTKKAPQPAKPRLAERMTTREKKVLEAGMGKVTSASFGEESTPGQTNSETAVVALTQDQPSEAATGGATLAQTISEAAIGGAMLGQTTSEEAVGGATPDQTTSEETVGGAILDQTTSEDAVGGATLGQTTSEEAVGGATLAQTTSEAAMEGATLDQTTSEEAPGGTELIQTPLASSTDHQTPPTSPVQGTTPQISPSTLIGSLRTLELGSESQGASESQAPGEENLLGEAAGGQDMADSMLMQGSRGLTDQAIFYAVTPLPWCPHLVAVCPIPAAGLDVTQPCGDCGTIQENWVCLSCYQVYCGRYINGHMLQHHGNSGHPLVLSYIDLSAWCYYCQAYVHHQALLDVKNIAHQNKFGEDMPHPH
Nature of the assay: HDAC6 Enzyme Assay. Format: biochemical. The note with it: test compound at 1.235 μM; substrate Ac-Arg-Gly-Lys(Ac)-AMC, 1 hour at 30° C.; read-out: Percent Inhibition at 1.235 μM. The protocol:
To measure the inhibition of HDAC6 activity, purified human HDAC6 (BPS Bioscience; Cat. No. 5006) is incubated with substrate Ac-Arg-Gly-Lys(Ac)-AMC peptide (Bachem Biosciences; Cat. No. I-1925) for 1 hour at 30° C. in the presence of test compounds or vehicle DMSO control. The reaction is stopped with the HDAC inhibitor trichostatin A (Sigma; Cat. No. T8552) and the amount of Arg-Gly-Lys-AMC generated is quantitated by digestion with trypsin (Sigma; Cat. No. T1426) and subsequent measurement of the amount of AMC released using a fluorescent plate reader (Pherastar, BMG Technologies) set at Ex 340 nm and Em 460 nm. Concentration response curves are generated by calculating the fluorescence increase in test compound-treated samples relative to DMSO-treated controls, and percentage inhibition values at a single concentration or enzyme inhibition (IC50) values are determined from those curves. One skilled in the art will appreciate that the values generated either as percentage inhibition at a single concentration or IC50 values are subject to experimental variation.
As for `CC1(C(=O)N2CCc3nc(C(=O)NO)ccc3C2)CCCCC1` [Compound I-19, N-hydroxy-6-[(1-methylcyclohexyl)carbonyl]-5,6,7,8-tetrahydro-1,6-naphthyridine-2-carboxamide], the inhibition at 1.235 µM was determined as 79.5%.
Next, `Cc1nc(C(=O)N2CCc3cc(C(=O)NO)cnc3C2)cs1` [Compound I-10, N-hydroxy-7-[(2-methyl-1,3-thiazol-4-yl)carbonyl]-5,6,7,8-tetrahydro-1,7-naphthyridine-3-carboxamide]: 84.6%; `Cc1onc(-c2ccccc2)c1NC(=O)N1CCc2nc(C(=O)NO)ccc2C1` [Compound I-43, N^2-hydroxy-N^6-(5-methyl-3-phenylisoxazol-4-yl)-7,8-dihydro-1,6-naphthyridine-2,6(5H)-dicarboxamide]: 23.4%; `O=C(NO)c1cnc2c(c1)CN(C(=O)c1cc3ccccc3s1)CC2` [Compound I-52, 6-(1-benzothien-2-ylcarbonyl)-N-hydroxy-5,6,7,8-tetrahydro-1,6-naphthyridine-3-carboxamide]: 97.4%.
In the case of `O=C(NO)c1cnc2c(c1)CCN(C(=O)c1cc3ccccc3s1)C2` [Compound I-4, 7-(1-benzothien-2-ylcarbonyl)-N-hydroxy-5,6,7,8-tetrahydro-1,7-naphthyridine-3-carboxamide] it was 97.2%; in that of `COc1ccc(C(=O)N2CCc3cc(C(=O)NO)cnc3C2)cc1` [Compound I-48, N-hydroxy-7-(4-methoxybenzoyl)-5,6,7,8-tetrahydro-1,7-naphthyridine-3-carboxamide], 91.1%; in that of `Cn1cccc1C(=O)N1CCc2cc(C(=O)NO)cnc2C1` [Compound I-24, N-hydroxy-7-[(1-methyl-1H-pyrrol-2-yl)carbonyl]-5,6,7,8-tetrahydro-1,7-naphthyridine-3-carboxamide], 92.3%.
In the case of `CC1(C(=O)N2CCc3ncc(C(=O)NO)cc3C2)CCCCC1` [Compound I-56, N-hydroxy-6-[(1-methylcyclohexyl)carbonyl]-5,6,7,8-tetrahydro-1,6-naphthyridine-3-carboxamide] it was 93%.
As for `CC(C)(C)OC(=O)N1CCc2cc(C(=O)NO)cnc2C1` [Compound I-3, tert-butyl 3-[(hydroxyamino)carbonyl]-5,8-dihydro-1,7-naphthyridine-7(6H)-carboxylate], the inhibition at 1.235 µM is 95.3%.
Turning to `O=C(NO)c1cnc2c(c1)CCN(C(=O)c1ccc(Cl)cc1)C2` [Compound I-28, 7-(4-chlorobenzoyl)-N-hydroxy-5,6,7,8-tetrahydro-1,7-naphthyridine-3-carboxamide], the inhibition at 1.235 µM worked out at 91.9%.
For the molecule `O=C(NO)c1ccc2c(n1)CCN(C(=O)NCCc1ccccc1)C2` [Compound I-55, N^2-hydroxy-N^6-(2-phenylethyl)-7,8-dihydro-1,6-naphthyridine-2,6(5H)-dicarboxamide], the inhibition at 1.235 µM is 58.3%.
In the case of `CC(C)(C)c1ccc(C(=O)N2CCc3ncc(C(=O)NO)cc3C2)cc1` [Compound I-50, 6-(4-tert-butylbenzoyl)-N-hydroxy-5,6,7,8-tetrahydro-1,6-naphthyridine-3-carboxamide] it was 95.1%; in that of `O=C(NO)c1cnc2c(c1)CCN(C(=O)c1cc3ccccc3o1)C2` [Compound I-18, 7-(1-benzofuran-2-ylcarbonyl)-N-hydroxy-5,6,7,8-tetrahydro-1,7-naphthyridine-3-carboxamide], 97.2%; in that of `O=C(NO)c1cnc2c(c1)CCN(C(=O)c1[nH]c3ccccc3c1-c1ccccc1)C2` [Compound I-37, N-hydroxy-7-[(3-phenyl-1H-indol-2-yl)carbonyl]-5,6,7,8-tetrahydro-1,7-naphthyridine-3-carboxamide], 93.7%.
Next, `O=C(NO)c1cnc2c(c1)CN(C(=O)c1ccc(-c3ccccn3)s1)CC2` [Compound I-42, N-hydroxy-6-[(5-pyridin-2-yl-2-thienyl)carbonyl]-5,6,7,8-tetrahydro-1,6-naphthyridine-3-carboxamide]: 97.5%; `O=C(NO)c1ccc2c(n1)CCN(C(=O)NC1CCCCC1)C2` [Compound I-17, N^6-cyclohexyl-N^2-hydroxy-7,8-dihydro-1,6-naphthyridine-2,6(5H)-dicarboxamide]: 41.2%; `O=C(NO)c1ccc2c(n1)CCN(C(=O)NC13CC4CC(CC(C4)C1)C3)C2` [Compound I-13, N^6-[1-adamantyl]-N^2-hydroxy-7,8-dihydro-1,6-naphthyridine-2,6(5H)-dicarboxamide]: 70.6%.
In the case of `O=C(NO)c1cnc2c(c1)CN(S(=O)(=O)c1ccc(C(F)(F)F)cc1)CC2` [Compound I-62, N-hydroxy-6-{[4-(trifluoromethyl)phenyl]sulfonyl}-5,6,7,8-tetrahydro-1,6-naphthyridine-3-carboxamide] it was 94.7%; in that of `CCCNC(=O)N1CCc2nc(C(=O)NO)ccc2C1` [Compound I-36, N^2-hydroxy-N^6-propyl-7,8-dihydro-1,6-naphthyridine-2,6(5H)-dicarboxamide], 26.5%.
